ChEMBL document CHEMBL1821717, “Synthesis and biochemical evaluation of triazole/tetrazole-containing sulfonamides against thrombin and related serine proteases” (Bioorg Med Chem Lett, 2011)

Columns and labels:
Chymase (Homo sapiens) = biological target: T1, Chymase (Homo sapiens) (UniProt P23946); experiment: Inhibition of human chymase assessed as residual enzyme activity using chromogenic N-succinyl-Ala-Ala-Pro-Phe p-nitroanilide as substrate at 10 uM pre-incubated for 10 mins by spectrophotometry relative to untreated control; type: single protein
T1 sequence (whole entry): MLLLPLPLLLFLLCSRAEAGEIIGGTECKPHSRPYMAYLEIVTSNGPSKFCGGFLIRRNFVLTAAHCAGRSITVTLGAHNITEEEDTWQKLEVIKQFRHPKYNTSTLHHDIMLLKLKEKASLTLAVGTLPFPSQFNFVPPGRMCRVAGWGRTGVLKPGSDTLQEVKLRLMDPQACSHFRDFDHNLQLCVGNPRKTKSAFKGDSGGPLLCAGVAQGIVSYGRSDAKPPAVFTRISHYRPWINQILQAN

Homo sapiens = species on record: Homo sapiens; experiment: Inhibition of human tryptase assessed as residual enzyme activity using chromogenic H-D-HHT-Ala-Arg-pNA 2AcOH as substrate at 10 uM pre-incubated for 10 mins measured for 30 mins by spectrophotometry relative to untreated control
[1] = Inhibition of bovine pancreatic trypsin using chromogenic N-alpha-bemzoyl-arginine ethyl ester hydrochloride as substrate pre-incubated for 10 mins by spectrophotometry; design: species or system Bos taurus
[2] = Ratio of Ki for bovine pancreatic trypsin to Ki for human thrombin

SMILES | Ratio (Chymase (Homo sapiens)) | Ratio (Homo sapiens) | Ki [1] [µM] | Ratio Ki [2]
O=S(=O)(/C=C/c1cccc(F)c1)Nc1cccc(OCc2cn(Cc3cc4ccccc4s3)nn2)c1 | 0.95 | 0.95 | 119 | 48
O=S(=O)(/C=C/c1cccc(Cl)c1)Nc1cccc(OCc2cn(Cc3ccsc3Br)nn2)c1 | 0.96 | 0.98 | – | –
COc1cccc(/C=C/S(=O)(=O)Nc2cccc(-c3nnn(Cc4cccc(Cl)c4)n3)c2)c1 | 1 | 1 | – | –
O=S(=O)(/C=C/c1cccc(F)c1)Nc1cccc(OCc2cn(Cc3cccnc3)nn2)c1 | 0.99 | 1 | – | –
O=S(=O)(/C=C/c1cccc(C(F)(F)F)c1)Nc1cccc(-c2nnn(Cc3cccc(Cl)c3)n2)c1 | 0.97 | 1 | – | –
O=[N+]([O-])c1cccc(/C=C/S(=O)(=O)Nc2cccc(OCc3cn(Cc4cc5ccccc5s4)nn3)c2)c1 | 0.89 | 1 | 122 | 71
O=[N+]([O-])c1cccc(/C=C/S(=O)(=O)Nc2cccc(OCc3cn(Cc4nc5ccccc5s4)nn3)c2)c1 | 0.95 | 1 | 187 | 41
Nc1cccc(/C=C/S(=O)(=O)Nc2cccc(OCc3cn(Cc4cc5ccccc5s4)nn3)c2)c1 | 0.88 | 0.99 | 71 | 41
O=S(=O)(/C=C/c1cccc(F)c1)Nc1cccc(-c2nnn(Cc3cccc(Cl)c3)n2)c1 | 0.91 | 0.97 | – | –
O=S(=O)(/C=C/c1cccc(Cl)c1)Nc1cccc(OCc2cn(Cc3cccc(Cl)c3)nn2)c1 | 0.97 | 0.95 | – | –
O=S(=O)(/C=C/c1cccc(Cl)c1)Nc1cccc(OCc2cn(Cc3nc4ccccc4s3)nn2)c1 | 1 | 0.98 | – | –
Cc1cccc(/C=C/S(=O)(=O)Nc2cccc(-c3nnn(Cc4cccc(Cl)c4)n3)c2)c1 | 0.99 | 1 | – | –
O=S(=O)(/C=C/c1cccc(Cl)c1)Nc1cccc(-c2nnn(Cc3cccc(Cl)c3)n2)c1 | 0.97 | 1 | – | –
O=[N+]([O-])c1cccc(/C=C/S(=O)(=O)Nc2cccc(OCc3cn(Cc4cc5ccccc5[nH]4)nn3)c2)c1 | 1 | 0.98 | – | –
O=[N+]([O-])c1cccc(/C=C/S(=O)(=O)Nc2cccc(OCc3cn(Cc4cccnc4)nn3)c2)c1 | 1 | 1 | – | –
O=S(=O)(/C=C/c1cccc(Cl)c1)Nc1cccc(OCc2cn(Cc3cc4ccccc4[nH]3)nn2)c1 | 1 | 0.99 | – | –
O=S(=O)(/C=C/c1cccc(C(F)(F)F)c1)Nc1cccc(OCc2cn(Cc3cc4ccccc4s3)nn2)c1 | 0.99 | 0.97 | 127 | 64
O=[N+]([O-])c1cccc(/C=C/S(=O)(=O)Nc2cccc(-c3nnn(Cc4cccc(Cl)c4)n3)c2)c1 | 0.94 | 1 | – | –
O=S(=O)(/C=C/c1cccc(C(F)(F)F)c1)Nc1cccc(OCc2cn(Cc3cccnc3)nn2)c1 | 1 | 0.96 | – | –
CS(=O)(=O)Nc1cccc(-c2nnn(Cc3cccc(Cl)c3)n2)c1 | 0.95 | 0.97 | – | –
O=S(=O)(/C=C/c1cccc(Cl)c1)Nc1cccc(OCc2cn(Cc3cc4ccccc4s3)nn2)c1 | – | – | 729 | –
O=S(=O)(/C=C/c1cccc(Cl)c1)Nc1cccc(OCc2cn(Cc3ccccc3)nn2)c1 | 1 | 0.97 | – | –
O=S(=O)(/C=C/c1cccc(Cl)c1)Nc1cccc(OCc2cn(Cc3ccsc3)nn2)c1 | 0.99 | 0.95 | – | –
O=S(=O)(/C=C/c1cccc(Br)c1)Nc1cccc(-c2nnn(Cc3cccc(Cl)c3)n2)c1 | 0.95 | 1 | – | –
O=S(=O)(/C=C/c1cccc(Cl)c1)Nc1cccc(OCc2cn(Cc3cccnc3)nn2)c1 | 0.98 | 0.99 | – | –
